# Assay results published in US20090155784A1, “ASSESSMENT OF ASTHMA AND ALLERGEN-DEPENDENT GENE EXPRESSION” (Wyeth, priority 2007, published 2009).
# System: PBMCs from healthy volunteers
# Experiment: HG-U133A baseline gene expression in PBMCs of healthy volunteers (HV), cPLA2 inhibitor in the absence of allergen (no AG)
# Format: cell-based, human
# Text: PBMCs were stimulated in vitro with a cocktail containing 4 different allergens from house dust mite, ragweed and cat. Recombinant allergens, Der p1, Der f2, Fel d1 (Indoor Biotech, Charlottesville, Va.) and natural ragweed allergen (Allergy Lab, Seattle, Wash.) were selected and screened for endotoxin contamination (LAL Endotoxin Test, Catalog #HIT302, sensitivity, 0.0001 Eu/ml, Cell Sciences, Canton, Mass.). The sensitivity of the subjects was unknown but the allergens were chosen based on the estimate that 80% of allergic individuals are believed to react to one or more of these allergens. Culture medium contained RPMI-1640 (Sigma) with 10% heat inactivated FCS (Sigma St. Louis, Mo.) and 100 unit/mL Penicillin and […] Streptomycin and 0.292 mg/mL Glutamine (GIBCO RL Invitrogen, Carlsbad, Calif.). The final allergen cocktail concentrations in culture medium were: Der p1 and Der f2 (dust mite), 1 mg/ml; Fel d1 (cat), 1.25 mg/ml; ragweed, 125 mg/ml. The total level of endotoxin contamination in culture medium was 0.057 Eu/ml. The cPLA2 inhibitor 4-{3-[1-benzhydryl-5-chloro-2-(2-{[(2,6-dimethylbenzyl)sulfonyl]amino}ethyl)-1H-indol-3-yl]propyl}benzoic acid was used at a concentration of 0.3 μM/ml. Zileuton, a 5-lipoxygenase inhibitor, was added at a concentration of 5 μM. The inhibitory activity of both the cPLA2 inhibitor and Zileuton samples were verified in a human whole blood assay. After 6 days in culture approximately 200 μL of supernatant was removed using an 8-channel pipettor without disturbing the cell pellet and placed into a collection plate for cytokine ELISA assays. To the remaining cell pellet 100 μL of RLT lysis buffer containing 1% beta-mercaptoethanol was added and snap frozen for RNA purification.
# RNA was purified using QIA shredders and Rneasy mini kits (Qiagen, Valencia, Calif.). PBMC pellets frozen in RLT lysis buffer containing 1% β-mercaptoethanol were thawed and processed for total RNA isolation using the QIA shredder and RNeasy mini kit. A phenol:chloroform extraction was then performed, and the RNA was repurified using the RNeasy mini kit reagents. Eluted RNA was quantified using a Spectramax96 well plate UV reader (Molecular Devices, Sunnyvale, Calif., USA) monitoring A260/280 OD values. The quality of each RNA sample was assessed by capillary electrophoresis alongside an RNA molecular weight ladder on the Agilent 2100 bioanalyzer (Agilent Technologies, Palo Alto, Calif., USA). RNA samples were assigned quality values of intact (distinct 18S and 28S bands); partially degraded (discernible 18S and 28S bands with presence of low molecular weight bands) or completely degraded (no discernible 18S and 28S bands).
# Labeled targets for oligonucleotide arrays were prepared using a modification of the procedure described by Lockhart et al. (Lockhart (1996) Nat. Biotechnol. 14:1675-80). Labeled targets were hybridized to the HG-U133A Affymetrix GeneChip Array as described in the Affymetrix technical manual. Eleven biotinylated control transcripts ranging in abundance from 3 parts per million (ppm) to 100 ppm were spiked into each sample to function as a standard curve (Hill (2001) Genome Biol. 2:RESEARCH0055). GeneChip MAS 5.0 software was used to evaluate the hybridization intensity, compute the signal value for each probe set and make an absent/present call.
# GeneChips were required to pass the pre-set quality control criteria that the RNA quality metric required a 5′:3′ ratio. Two asthma subjects were excluded from the study due to failure to meet the RNA quality metric and 2 GeneChips from the group treated with cPLA2a inhibitor were excluded for the same reason. The signal value for each probe set was converted into a frequency value representative of the number of transcripts present in 10^6 transcripts by reference to the standard curve (Hill (2001) Genome Biol. 2:RESEARCH0055). […]
# [1] = healthy population, no allergen
smiles,measurement,setting,value
"Cc1cccc(C)c1CS(=O)(=O)NCCc1c(CCCc2ccc(C(=O)O)cc2)c2cc(Cl)ccc2n1C(c1ccccc1)c1ccccc1 [cPLA2 inhibitor, 4-{3-[1-benzhydryl-5-chloro-2-(2-{[(2,6-dimethylbenzyl)sulfonyl]amino}ethyl)-1H-indol-3-yl]propyl}benzoic acid]",probes significantly downregulated in the presence of cPLA2 inhibition,[1],43 probes
same,probes significantly upregulated in the presence of cPLA2 inhibition,[1],36 probes
same,Fold Change cPLA2 inhibitor vs. no AG HV,"probeset 44673_at, gene SN",1.425 fold
same,Fold Change cPLA2 inhibitor vs. no AG HV,"probeset 58696_at, gene RRP41",1.202 fold
same,Fold Change cPLA2 inhibitor vs. no AG HV,"probeset 200886_s_at, gene PGAM1",−1.153 fold
same,Fold Change cPLA2 inhibitor vs. no AG HV,"probeset 200887_s_at, gene STAT1",1.158 fold
same,Fold Change cPLA2 inhibitor vs. no AG HV,"probeset 200923_at, gene LGALS3BP",1.268 fold
same,Fold Change cPLA2 inhibitor vs. no AG HV,"probeset 200976_s_at, gene TAX1BP1",1.159 fold
same,Fold Change cPLA2 inhibitor vs. no AG HV,"probeset 201061_s_at, gene STOM",1.242 fold
same,Fold Change cPLA2 inhibitor vs. no AG HV,"probeset 201090_x_at, gene K-ALPHA-1",1.122 fold
same,Fold Change cPLA2 inhibitor vs. no AG HV,"probeset 201118_at, gene PGD",1.22 fold
same,Fold Change cPLA2 inhibitor vs. no AG HV,"probeset 201298_s_at, gene C2ORF6",1.106 fold
same,Fold Change cPLA2 inhibitor vs. no AG HV,"probeset 201463_s_at, gene TALDO1",1.153 fold
same,Fold Change cPLA2 inhibitor vs. no AG HV,"probeset 201649_at, gene UBE2L6",1.19 fold
same,Fold Change cPLA2 inhibitor vs. no AG HV,"probeset 201785_at, gene RNASE1",−3.602 fold
same,Fold Change cPLA2 inhibitor vs. no AG HV,"probeset 201945_at, gene FURIN",1.348 fold
same,Fold Change cPLA2 inhibitor vs. no AG HV,"probeset 202068_s_at, gene LDLR",1.388 fold
same,Fold Change cPLA2 inhibitor vs. no AG HV,"probeset 202193_at, gene LIMK2",1.457 fold
same,Fold Change cPLA2 inhibitor vs. no AG HV,"probeset 202245_at, gene LSS",1.264 fold
same,Fold Change cPLA2 inhibitor vs. no AG HV,"probeset 202269_x_at, gene GBP1",1.475 fold
same,Fold Change cPLA2 inhibitor vs. no AG HV,"probeset 202307_s_at, gene TAP1",1.313 fold
same,Fold Change cPLA2 inhibitor vs. no AG HV,"probeset 202308_at, gene SREBF1",1.436 fold
same,Fold Change cPLA2 inhibitor vs. no AG HV,"probeset 202510_s_at, gene TNFAIP2",1.355 fold
same,Fold Change cPLA2 inhibitor vs. no AG HV,"probeset 202531_at, gene IRF1",1.259 fold
same,Fold Change cPLA2 inhibitor vs. no AG HV,"probeset 202626_s_at, gene LYN",1.54 fold
same,Fold Change cPLA2 inhibitor vs. no AG HV,"probeset 202841_x_at, gene OGFR",1.239 fold
same,Fold Change cPLA2 inhibitor vs. no AG HV,"probeset 202847_at, gene PCK2",1.344 fold
same,Fold Change cPLA2 inhibitor vs. no AG HV,"probeset 202859_x_at, gene IL8",2.42 fold
same,Fold Change cPLA2 inhibitor vs. no AG HV,"probeset 202917_s_at, gene S100A8",1.662 fold
same,Fold Change cPLA2 inhibitor vs. no AG HV,"probeset 203922_s_at, gene CYBB",1.52 fold
same,Fold Change cPLA2 inhibitor vs. no AG HV,"probeset 203923_s_at, gene CYBB",1.214 fold
same,Fold Change cPLA2 inhibitor vs. no AG HV,"probeset 204034_at, gene ETHE1",1.212 fold
same,Fold Change cPLA2 inhibitor vs. no AG HV,"probeset 204224_s_at, gene GCH1",1.48 fold
same,Fold Change cPLA2 inhibitor vs. no AG HV,"probeset 204326_x_at, gene UNK_NM_002450",2.024 fold
same,Fold Change cPLA2 inhibitor vs. no AG HV,"probeset 204745_x_at, gene MT1G",2.215 fold
same,Fold Change cPLA2 inhibitor vs. no AG HV,"probeset 204858_s_at, gene ECGF1",1.292 fold
same,Fold Change cPLA2 inhibitor vs. no AG HV,"probeset 204929_s_at, gene VAMP5",1.472 fold
same,Fold Change cPLA2 inhibitor vs. no AG HV,"probeset 205322_s_at, gene MTF1",1.553 fold
same,Fold Change cPLA2 inhibitor vs. no AG HV,"probeset 205872_x_at, gene UNK_NM_022359",1.629 fold
same,Fold Change cPLA2 inhibitor vs. no AG HV,"probeset 205992_s_at, gene IL15",1.522 fold
same,Fold Change cPLA2 inhibitor vs. no AG HV,"probeset 206025_s_at, gene TNFAIP6",1.671 fold
same,Fold Change cPLA2 inhibitor vs. no AG HV,"probeset 206026_s_at, gene TNFAIP6",1.866 fold
same,Fold Change cPLA2 inhibitor vs. no AG HV,"probeset 206637_at, gene GPR105",1.797 fold
same,Fold Change cPLA2 inhibitor vs. no AG HV,"probeset 207091_at, gene P2RX7",1.272 fold
same,Fold Change cPLA2 inhibitor vs. no AG HV,"probeset 207277_at, gene CD209",1.574 fold
same,Fold Change cPLA2 inhibitor vs. no AG HV,"probeset 207533_at, gene CCL1",2.229 fold
same,Fold Change cPLA2 inhibitor vs. no AG HV,"probeset 207697_x_at, gene LILRB2",1.484 fold
same,Fold Change cPLA2 inhibitor vs. no AG HV,"probeset 208071_s_at, gene LAIR1",1.82 fold
same,Fold Change cPLA2 inhibitor vs. no AG HV,"probeset 208373_s_at, gene P2RY6",1.593 fold
same,Fold Change cPLA2 inhibitor vs. no AG HV,"probeset 208671_at, gene TDE2",−1.137 fold
same,Fold Change cPLA2 inhibitor vs. no AG HV,"probeset 208699_x_at, gene TKT",1.243 fold
